Legend:
TNF-α = TNF-α production by ELISA; assay type: cell-based, mouse
From the text: Triplicate aliquots of RAW 264.7 cells were exposed to NP for 6 hr. The culture media were collected, centrifuged to remove all debris and the resultant supernatant assayed by ELISA for TNF-α and Western blotting for Jun kinase.

RAW 264.7 cells [1] = assay: Propidium iodide (PI) uptake, cellular toxicity; assay type: cell-based
Procedure: (§1) Cells were stained with the fluorescent dyes diluted in DMEM. The following dye combinations were added for 15-30 min at 37° C. in the dark: (i) 47.5 μg/ml propidium iodide (PI) in 200 μl DMEM (assessment of cell death); (ii) 20 nM DiOC6 (assessment of Δψm); (iii) 2 μM MitoSOX™ red (superoxide generation) or 2 μM hydroethidine (HE, superoxide production); (iv) 2.5 μM 2,7 dichlorofluorescein (DCF, mostly assesses H2O2 production); (v) 5 μM Fluo-3 (assess cytoplasmic free calcium); (vi) 4 μM Rhod-2 (mitochondrial free calcium); (vii) 40 μM monobromobimane (MBB, assess intracellular thiol levels). Flow cytometry was performed using a FACScan (Becton Dickinson, Mountain View, Calif.) equipped with a single 488 nm argon laser. DiOC6 and Fluo-3 fluorescence were analyzed in the FL-1 channel, while PI, Rhod-2 and MitoSOX red fluorescence were analyzed in FL-2. HE fluorescence was analyzed using FL-3 channels. Monobromobimane fluorescence was excited by the UV laser tuned to 325 nm, and emission was measured at 510 nm (FL-4 channel) in the LSR flow cytometer. Forward and side scatter were used to gate out cellular fragments.
Large-scale PTP opening leads to mitochondrial depolarization, O2.^− production and the release of pro-apoptotic factors. Cellular toxicity was assessed by PI staining (FIG. 18C).

RAW 264.7 cells [2] = assay: DCF fluorescence (H2O2 production), flow cytometry; assay type: cell-based, mouse
Procedure: (§2) RAW 264.7 cells were cultured in a 5% CO2 in Dulbecco's Modified Eagle Medium (DMEM) containing 10% FCS, 5000 U/ml penicillin, 500 μg/ml streptomycin, and 2 mM L-glutamine (complete medium). For exposure to NP, aliquots of 3×10^5 cells were cultured in 24-well plates in 0.5 ml of medium at 37° C. for the indicated time periods. All the NP solutions were prepared fresh from stock solutions (10 mg/ml) and the solutions were sonicated for 10 sec before addition to cell cultures.
Cells were stained with the fluorescent dyes diluted in DMEM. […] DiOC6 and Fluo-3 fluorescence were analyzed in the FL-1 channel, while PI, Rhod-2 and MitoSOX red fluorescence were analyzed in FL-2. HE fluorescence was analyzed using FL-3 channels. Monobromobimane fluorescence was excited by the UV laser tuned to 325 nm, and emission was measured at 510 nm (FL-4 channel) in the LSR flow cytometer. […]
The fold-increase in mean fluorescence intensity (MFI) of DCF was expressed as the ratio of particle-treated vs. control cells (FIG. 8A).

RAW 264.7 cells [3] = assay: MitoSOX Red fluorescence (mitochondrial superoxide production), flow cytometry; assay type: cell-based, mouse
Procedure: as §2

HO-1 = HO-1 expression by immunoblotting; assay type: cell-based, mouse
Procedure: GAPDH immunoblotting was used to ascertain equal protein loading (lower panels).
For Western blotting, 100 μg of total protein was separated by 10% SDS-PAGE and transferred to a PVDF membrane. After blocking, the membranes were incubated with primary antibodies against HO-1, phospho-JNK or JNK. The membranes were overlayed with secondary antibody before the addition of the HRP-conjugated avidin-biotin complex. The proteins were detected using ECL reagent according to the manufacturer's instructions. Protein abundance was quantified by densitometric scanning using a laser Personal Densitometer SI and Image Quant software (Amersham Biosciences).

RAW 264.7 cells [4] = tested on: RAW 264.7 cells
Procedure: Electron microscopy was performed as previously described (Yang A H, et al., In Vitro Cell Dev Biol 23:34-46, 1987). Thin sections were cut with a Reichert-Jung ultracut and ultramicrotome (Leica, Stuttgart, Germany). Copper grids were stained with lead citrate and uranyl acetate and photographed in a Hitachi electron microscope (Hitachi Instrument Inc., Tokyo, Japan).

RAW 264.7 cells [5] = assay: DiOC6 fluorescence, mitochondrial membrane potential (Δψm); assay type: cell-based
Procedure: as §1
Toxic oxidative stress can perturb mitochondrial function in a number of ways, including disruption of electron flow in the inner membrane, dissipation of the mitochondrial membrane potential (Δψm), mitochondrial Ca^2+ uptake, and large-scale opening of the PTP. […]

Molecule: CC(=O)N[C@@H](CS)C(=O)O [NAC, N-acetylcysteine]
- effect on UFP-induced TNF-α production (TNF-α; pre-treatment 2 hr, then UFP 6 hr): capable of interfering
- effect on cytotoxicity of UFP and NH2-PS (RAW 264.7 cells [1]): could interfere
- effect on ROS production by NH2-PS particles (RAW 264.7 cells [2]): effectively disrupted
- effect on UFP-induced H2O2 production (RAW 264.7 cells [2]; pretreatment, 4 and 16 hrs): significantly suppressed
- effect on NH2-PS ROS response (RAW 264.7 cells [3]; 8 hrs): failed to suppress
- effect on NH2-PS ROS response (RAW 264.7 cells [3]; 16 hrs): did interfere
- effect on UFP-induced O2.− generation (RAW 264.7 cells [3]; all time points): could interfere
- effect on induction of HO-1 expression by NP (HO-1): suppressed

Molecule: C[S+]([O-])CCCCN=C=S (stereo not drawn) [SFN, Sulforaphane]
- effect of prior treatment on TNF-α production (TNF-α; pre-treatment 4 hr, then UFP 6 hr): interference
- HO-1 expression after prior treatment (HO-1; without NP): resulted in HO-1 expression

Molecule: Carbon Black
- cellular uptake, subcellular localization and mitochondrial damage (RAW 264.7 cells [4]): taken up in phagosomes without mitochondrial damage

Molecule: Polymyxin B [PMB]
- effect on LPS-induced TNF-α response (TNF-α; 6 hr): significant suppression
- effect on UFP TNF-α response (TNF-α; 6 hr): small effect

Molecule: titanium dioxide [TiO2]
- DiOC6 fluorescence (Δψm) (RAW 264.7 cells [5]): failed to exert an influence
- cellular uptake, subcellular localization and mitochondrial damage (RAW 264.7 cells [4]): taken up into loose-fitting phagosomes without noticeable mitochondrial damage

— patent US8512943B2, “Accessing the toxic potential of nanomaterials” (The Regents of the University of California, priority 2005, dated 2013)
